From PubChem BioAssay AID2765 (Broad Institute, 2010)
Activity calls are given as the source filed them.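 How the source made its calls: active means half-maximal concentration for the rise in caspase light signal at or below ten times the top tested dose; inconclusive means flat fit between 30% and 70% activity, or unreliable curve fit; inactive means the rest.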

The compounds below were run on MEF A1-2A-BIM cells, caspase 3/7 luminescence, 3 h (assay: caspase activation in A1-2A-BIM MEF cells, dose response, A1 inhibitor project, cell-based, luminescence, retest (AID 2765)).
In the case of `C=CCn1c(SCC(=O)NC23CC4CC(CC(C4)C2)C3)nc(O)cc1=O`, the EC50 is reported as > 35 µM (inactive). With `COc1ccc2nc(SCC(=O)N3CCN(c4ccc(F)cc4)CC3)c(C#N)cc2c1` the EC50 was > 35 µM (inactive). In the case of `CC(C)CC(NC(N)=O)C(=O)OCC(=O)Nc1ccc(SC(F)F)cc1` (centres undefined), the EC50 is reported as > 35 µM (inactive). `COc1ccc(C(=O)COC(=O)CNS(=O)(=O)c2ccc(C)cc2)cc1` was tested, and the EC50 was > 35 µM (inactive). With `Cn1cccc1C(=O)NC(=O)COC(=O)c1ccc(S(C)(=O)=O)cc1` the EC50 was > 35 µM (inactive). For `CC/C(=C1/C(=O)CC(C)(C)C(C(=O)OC)C1=O)N1CCCC1` (centres undefined), the EC50 was > 35 µM (inactive). In the case of `CC(C)[C@H](NC(=O)[C@@H]1Cc2ccccc2CN1C(=O)OC(C)(C)C)C(=O)NC1CCCC1`, the EC50 is reported as > 35 µM (inactive). With `O=S1(=O)C=C(Sc2nnc(-c3ccccc3)o2)c2ccccc21` the EC50 was > 35 µM (inactive). `O=C(O)COc1ccccc1C=NNc1ccc([N+](=O)[O-])cc1S(=O)(=O)Nc1ccc(Cl)cc1` was tested, and the EC50 was > 35 µM (inactive). In the case of `O=C(CN1C(=O)COc2ccccc21)NCCCN1CCc2ccccc2C1`, the EC50 is reported as > 35 µM (inactive). With `CCOC(=O)C1=C(C)N(C)C(=O)C1CC(=O)O` (centres undefined) the EC50 was > 35 µM (inactive). `O=C(c1cc2sccc2n1Cc1ccc(F)cc1)N1CCCc2ccccc21` was tested, and the EC50 was > 35 µM (inactive). With `CCS(=O)(=O)c1ncc(Cl)c(C(=O)Nc2ccc(C)cc2)n1` the EC50 was > 35 µM (inactive). `O=C1C(=O)N(C/C=C/c2ccccc2)c2ccccc21` was tested, and the EC50 was > 35 µM (inactive). With `Cc1cc(C(F)(F)F)n2ncc(-c3cccc(Br)c3)c2n1` the EC50 was > 35 µM (inactive). With `OCc1ccc(OCCCOc2cccc3cccnc23)cc1` the EC50 was > 35 µM (inactive). `COc1ccccc1NC(=O)CC1COc2ccccc2O1` (centres undefined) was tested, and the EC50 was > 35 µM (inactive). For `CCN(C[C@H]1N[C@@](CC)(C(=O)OC)[C@H]2C(=O)N(Cc3ccccc3)C(=O)[C@@H]12)C(=O)c1ccc(F)cc1`, the EC50 was > 35 µM (inactive). `CCOc1nc(NCCO)nc(NCCC2=CCCCC2)n1` was tested, and the EC50 was > 35 µM (inactive). `Cc1cc(Oc2ccc(=O)[nH]n2)nc(Cl)n1` was tested, and the EC50 was > 35 µM (inactive). With `COc1cc(NC(=O)c2nn(C)c3c2CS(=O)(=O)c2ccccc2-3)cc(OC)c1` the EC50 was > 35 µM (inactive). In the case of `CCN1CCN(c2nc3ccccc3nc2NS(=O)(=O)c2ccc(NC(C)=O)cc2)CC1`, the EC50 is reported as > 35 µM (inactive). With `CSc1ccc(S(=O)(=O)N2CCC(C(=O)NCCc3ccccc3)CC2)cc1` the EC50 was > 35 µM (inactive). `CSc1ccccc1NC(=O)CCn1c(=O)sc2ccccc21` was tested, and the EC50 was > 35 µM (inactive). For `Cc1ccc2c(c1)C(=O)C(=O)N2Cc1ccc(Br)cc1`, the EC50 was > 35 µM (inactive). With `COc1ccccc1N1CCN(C(=O)c2ccc(C(C)(C)C)cc2)CC1` the EC50 was > 35 µM (inactive). For `CCOC(=O)CCCCCNC(=O)c1ccc(F)cc1F`, the EC50 was > 35 µM (inactive). `COc1ccc2[nH]c(=O)c(-c3nnn(-c4ccccc4)n3)cc2c1` was tested, and the EC50 was > 35 µM (inactive). For `CN(C)CCCN(C(=O)c1cc2cc([N+](=O)[O-])ccc2s1)c1nc2cc3c(cc2s1)OCCO3`, the EC50 was > 35 µM (inactive). With `COc1cccc(CN(CC(=O)NC2CCCC2)C(=O)c2csnn2)c1` the EC50 was > 35 µM (inactive). With `Cc1nc(NN)c2c3c(sc2n1)COC(C)(C)C3` the EC50 was > 35 µM (inactive). With `COC(=O)Cn1cc(C(=O)C2CC2)c2ccccc21` the EC50 was > 35 µM (inactive). For `O=C(CN(c1ccc(Br)cc1)S(=O)(=O)c1ccc(Cl)c([N+](=O)[O-])c1)NCCc1ccccc1`, the EC50 was > 35 µM (inactive). Compound `COc1ccccc1-c1cc(C(F)(F)F)nc(S(=O)(=O)CCCC(=O)N2CCOCC2)n1` has an EC50 of 28.7 µM. For `CC(=O)c1ccc(NC(=O)CO/N=C(\C)c2cccs2)cc1`, the EC50 was > 35 µM (inactive). `NCC1CCC(C(=O)Oc2ccc(CCC(=O)O)cc2)CC1` (centres undefined) was tested, and the EC50 was > 35 µM (inactive). In the case of `CC1=C(C(N)=O)C(c2ccc3c(c2)OCO3)n2nc(-c3cccc(C)c3)nc2N1` (centres undefined), the EC50 is reported as > 35 µM (inactive). For `O=C(N/C=N/OCc1ccc(Cl)cc1Cl)NOCc1ncc(C(F)(F)F)cc1Cl`, the EC50 was > 35 µM (inactive). `FC(F)(F)c1ccc(Cl)c(NC2=NCCCCC2)c1` was tested, and the EC50 was > 35 µM (inactive). In the case of `Fc1ccc(NC(=S)NCc2ccccc2Cl)cc1`, the EC50 is reported as > 35 µM (inactive). With `CCOC(=O)Nc1nc(-c2ccccc2)c(C(=O)c2ccccc2)s1` the EC50 was > 35 µM (inactive). With `CCC(C)Nc1nnc(SCC(=O)c2c(N)n(C3CC3)c(=O)[nH]c2=O)s1` (centres undefined) the EC50 was > 35 µM (inactive). With `COc1ccccc1CN1CC(C(=O)NCCN2CCNC2=O)CCC1=O` (centres undefined) the EC50 was > 35 µM (inactive). For `O=C(CCCCl)NC(=S)Nc1ccc(CN2CCOCC2)cc1`, the EC50 was > 35 µM (inactive). `CCn1c(SCC(=O)c2ccccc2)nnc1-c1cc2cc(Br)ccc2o1` was tested, and the EC50 was > 35 µM (inactive). For `CC(C)CCN1NC2(CCCC(C)C2)NC1=S` (centres undefined), the EC50 was > 35 µM (inactive). In the case of `O=C1CC(C(=O)Nc2ccccc2)C2(CCCCC2)O1` (centres undefined), the EC50 is reported as > 35 µM (inactive). For `Cc1cc(C(=O)Nc2cccc3c2O[C@@H](CN(C)S(=O)(=O)c2ccccc2)[C@H](C)CN([C@@H](C)CO)C3=O)n(C)n1`, the EC50 was > 35 µM (inactive). `Cc1cc(C(=O)CCl)c(C)n1CCc1ccc(Cl)cc1` was tested, and the EC50 was > 35 µM (inactive). Work on `Cc1ccc(C=C2C(Cl)=C(Cl)C(Cl)=C2Cl)cc1` yielded an EC50 of 7.19 µM. With `Cc1noc(NS(=O)(=O)c2ccc(NC(=O)c3ccccc3NS(=O)(=O)c3ccc(F)cc3)cc2)c1C` the EC50 was > 35 µM (inactive). `CCOC(=O)c1c(C)oc2c1c(CN1CCN(C(=O)OCC)CC1)c(O)c1ccccc12` gave an EC50 of 8.16 µM. With `CN1CCc2cccc(Cl)c2CC1` the EC50 was > 35 µM (inactive). In the case of `COc1ccc(-c2csc(NC(=O)Cc3ccccc3F)n2)c(OC)c1`, the EC50 is reported as > 35 µM (inactive). With `CCOC(=O)c1cc(/C(C)=N/OC(=O)c2ccc(C(C)(C)C)cc2)on1` the EC50 was > 35 µM (inactive). `C=C1CCc2c([nH]c3ccc(OCC(C)C)cc23)C1=O` showed an EC50 of 15.1 µM. In the case of `O=C1c2ccsc2SCCN1Cc1cccc(F)c1`, the EC50 is reported as > 35 µM (inactive). With `COc1ccc(S(=O)(=O)N2CCC(C(=O)N[C@@H](C)C(=O)NCc3ccncc3)CC2)cc1` the EC50 was > 35 µM (inactive). With `CC12CCCCC1NS(=O)(=O)OC2` (centres undefined) the EC50 was > 35 µM (inactive). With `O=C(NCc1ccccc1Br)c1cccc2c1C(=O)c1ccc(-c3ccc(OC(F)(F)F)cc3)cc1S2(=O)=O` the EC50 was > 35 µM (inactive). For `COc1cc2sc3ccc(C#Cc4ccc(N)cc4)cc3c(=O)c2cc1OC`, the EC50 was > 35 µM (inactive). `O=[N+]([O-])/C=C/c1cn(Cc2ccc(Cl)cc2)c2ccccc12` showed an EC50 of 21.6 µM. With `COc1ccc(CCNC(=O)COC(=O)c2cnc(Cl)c(Cl)c2)cc1` the EC50 was > 35 µM (inactive). For `O=C1/C(=C\c2c(NCCOCCO)nc3ccccn3c2=O)SC(=S)N1Cc1ccco1`, the EC50 was > 35 µM (inactive). `CC(C)N=c1scc(-c2ccco2)n1/N=C/c1ccc(O)c(O)c1` was tested, and the EC50 was > 35 µM (inactive). For `CC1CC(C)CN(C(=O)c2ccc(-c3ccc([N+](=O)[O-])cc3)o2)C1` (centres undefined), the EC50 was > 35 µM (inactive). For `Cc1cccc(/C=C/C(=O)c2ccc([N+](=O)[O-])o2)c1`, the EC50 was > 35 µM (inactive). `O=S(=O)(Nc1nc2ccccc2nc1Cl)c1ccc(Br)cc1` was tested, and the EC50 was > 35 µM (inactive). In the case of `CSC[C@@H]1NC(=S)N(c2ccc(C)cc2)C1=O`, the EC50 is reported as > 35 µM (inactive). With `COc1ccc(CCNCC(C)c2ccccc2)cc1` (centres undefined) the EC50 was > 35 µM (inactive). In the case of `CCCc1cc(=O)oc2c(C)c(OCC(=O)Nc3ccc(CN4CCOCC4)cc3)ccc12`, the EC50 is reported as > 35 µM (inactive). In the case of `CC(CC(=O)N1CCN(c2cccc(Cl)c2)CC1)S(=O)(=O)c1ccc2c(c1)NC(=O)CO2` (centres undefined), the EC50 is reported as > 35 µM (inactive). In the case of `COc1ccccc1N1C(=O)c2cccc3c(Cl)ccc(c23)C1=O`, the EC50 is reported as > 35 µM (inactive). In the case of `O=C(c1cccc(F)c1F)N1CCCC1`, the EC50 is reported as > 35 µM (inactive). With `Clc1ccc(C(Cn2ccnc2)OCc2c(Cl)cccc2Cl)c(Cl)c1` (centres undefined) the EC50 was > 35 µM (inactive). With `O=C(Nc1ccccc1C(=O)N1CCCCCC1)c1ccc(Cl)cc1` the EC50 was > 35 µM (inactive). `COc1cc(NC(=O)c2ccc(C)cc2C)ccc1NC(=O)c1cc2ccccc2o1` gave an EC50 of 26.7 µM. For `COc1cc(CN2CCCC(C(=O)Nc3ccccc3Oc3cccnc3)C2)ccc1F` (centres undefined), the EC50 was > 35 µM (inactive). For `COc1ccccc1C/C(N)=N/OC(=O)c1cccc([N+](=O)[O-])c1`, the EC50 was > 35 µM (inactive). In the case of `Cc1[nH]nc2nc(SCC(=O)NCCC3=CCCCC3)n(-c3ccc(Br)cc3)c(=N)c12`, the EC50 is reported as 13.9 µM. `O=C(NCc1ccc2c(c1)OCO2)C1CCN(c2ncccn2)CC1` was tested, and the EC50 was > 35 µM (inactive). With `COc1ccccc1N1CCN(C(c2ccccc2)c2nnnn2CCc2ccccc2)CC1` (centres undefined) the EC50 was > 35 µM (inactive). For `COc1ccc(N2CCN(C(=O)CCn3nnc4ccccc43)CC2)cc1`, the EC50 was > 35 µM (inactive). For `COc1ccccc1CC(=O)N1CCOCC1`, the EC50 was > 35 µM (inactive). For `COc1ccc2c(c1)[nH]c1c(=O)n(/N=C/C3C(C)C=C(C)CC3C)c(=O)[nH]c12` (centres undefined), the EC50 was > 35 µM (inactive). For `CC(C)(C)N(Cc1ccccc1)C(=O)COC(=O)CNC(=O)c1ccco1`, the EC50 was > 35 µM (inactive). In the case of `CCc1cc(-c2[nH]ncc2-c2ccc(OC)cc2)c(O)cc1O`, the EC50 is reported as > 35 µM (inactive). With `O=C(/C=C/c1ccc(O)cc1)c1ccc(O)cc1O` the EC50 was > 35 µM (inactive). For `Cc1ccsc1CNC1CCCCC1`, the EC50 was > 35 µM (inactive). `CCOc1ccc(NC(=S)NC(=O)/C=C/c2ccc(C)cc2)c([N+](=O)[O-])c1` showed an EC50 of 31.5 µM. In the case of `O=C(O)c1cc(-c2ccc(Cl)cc2)n(-c2cccc(Cl)c2)n1`, the EC50 is reported as > 35 µM (inactive). With `C=CCNC(=O)CSc1nc2sc3c(c2c(=O)n1CCC)CCC3` the EC50 was > 35 µM (inactive). `CCOc1ccccc1NC(=O)c1nc(S(=O)(=O)Cc2cccc(C)c2)ncc1Cl` was tested, and the EC50 was > 35 µM (inactive). With `CCC(Sc1ncccc1Nc1ccccn1)C(=O)O` (centres undefined) the EC50 was > 35 µM (inactive). With `CN(CCc1ccccc1)C(=O)c1cccc(NC(=O)Cc2cccc([N+](=O)[O-])c2)c1` the EC50 was > 35 µM (inactive). `Cc1nc(-c2ccc(F)cc2)c(CC(=O)N(C)CC(=O)Nc2ccccc2Cl)s1` was tested, and the EC50 was > 35 µM (inactive). In the case of `Cc1ccc(C(O)(CCN2CCCCC2)c2ccccc2)cc1` (centres undefined), the EC50 is reported as > 35 µM (inactive). For `O=C(Oc1cccc(/C=N/Nc2nc(Nc3ccccc3)nc(N3CCOCC3)n2)c1)c1ccco1`, the EC50 was > 35 µM (inactive). For `COc1ccc(CN2CCN(Cc3cc4ccccc4o3)CC2CCO)c(F)c1` (centres undefined), the EC50 was > 35 µM (inactive).
